Data set [1] concerns the target T1, vanilloid receptor (TRPV1) (Rattus norvegicus, UniProt O35433).
T1 construct: The spinal cord was extirpated from an SPF/VAF rat; from tissue; host or cells: rat spinal cord membrane specimen (SPF/VAF rat, Charles River Laboratories Japan Inc.)
As to the kind of experiment: [3H]Resiniferatoxin ([3H]RTX) binding experiment using rat spinal cord. The note with it: rat spinal cord membrane specimen, 37° C., 60 minutes; read-out: IC50 of [3H]RTX specific binding. The method, then:
[^3H]Resiniferatoxin ([^3H]RTX) Binding Experiment Using Rat Spinal Cord
The spinal cord was extirpated from an SPF/VAF rat (Charles River Laboratories Japan Inc.) and homogenized in an ice-cooled homogenization buffer (10 mmol/L HEPES/NaOH, 5 mmol/L KCl, 5.8 mmol/L NaCl, 2 mmol/L MgCl2, 0.75 mmol/L CaCl2, 12 mmol/L glucose, 137 mmol/L sucrose, pH 7.4). The resulting homogenate was centrifuged at 1000 g for 10 minutes at 4° C. The supernatant was centrifuged at 35000 g for 30 minutes at 4° C. The obtained precipitate was suspended in the homogenization buffer. The suspension was used as a tissue membrane specimen, and the protein concentration was determined using a protein assay staining solution (Bio-Rad Laboratories, US). The thus prepared specimen was stored at −80° C.
The known method [The Journal of Pharmacology and Experimental Therapeutics, 267: 728-733 (1993)] was modified and the modified method was performed. 400 μL of a membrane specimen solution (protein amount: about 50 μg) obtained by diluting the prepared specimen with an assay buffer (10 mmol/L HEPES/NaOH, 5 mmol/L KCl, 5.8 mmol/L NaCl, 2 mmol/L MgCl2, 0.75 mmol/L CaCl2, 12 mmol/L glucose, 137 mmol/L sucrose, 0.25 mg/mL bovine serum albumin, pH 7.4), 50 μL of a test compound solution, and 50 μL of [^3H]RTX (PerkinElmer Life Sciences Inc., US) were mixed and the mixture was incubated at 37° C. for 60 minutes. The reaction mixture was transferred on ice, and 50 μL of previously ice-cooled 2 mg/mL α1 acid glycoprotein (Sigma) was added thereto, and then, the mixture was centrifuged at 12000 g for 15 minutes at 4° C. A procedure in which 0.4 mL of the assay buffer was added to the obtained precipitate and the mixture was centrifuged at 12000 g for 15 minutes at 4° C. was performed twice. The precipitate obtained by the centrifugation was suspended in 0.5 mL of a 0.1 mol/L aqueous NaOH solution. 7 mL of Ultima Gold (Packard, US) was added to the suspension, and the radioactivity of the solution was measured using a liquid scintillation counter (LS6500: Beckman Coulter, Inc., US or TRI-CARB 2700TR: Packard, US). The [^3H]RTX binding amount in the presence of 0.1 μmol/L RTX was considered to be non-specific binding, and the specific binding was calculated by subtracting this value from the total amount of [^3H]RTX binding to the membrane specimen. Then, the replacement amount of the [^3H]RTX specific binding in the presence of the compound to the [^3H]RTX specific binding amount in the absence of the compound was calculated in percent. The IC50 value of the compound in this experiment was obtained from a logistic equation.
The logistic equation was fit to the following equation (equation 205 in the program) in the curve regression program XLfit (IDBS Inc.).
Y: Inhibition ratio X: Concentration of test compound

Data set [2] concerns entrapment nerve injury rat. The experiment in a line: Neuropathic pain inhibitory activity in entrapment nerve injury rat (von Frey pain threshold). It is filed as in vivo. The note with it: orally administered, dose of 20 mg/kg or less, measured after 1 hour, von Frey filaments. From the text:
Neuropathic Pain Inhibitory Activity of Compound in Entrapment Nerve Injury Rat
The method of Mosconi, Kruger et al. (Pain, vol. 64, pp. 37-57 (1996)) was modified partially and an entrapment nerve injury rat was produced.
By using a male Crl:CD(SD) rat, the sciatic nerve of the left hind limb was exfoliated under pentobarbital anesthesia, and the exfoliated region was covered with a polyethylene tube (trade name: Intramedic, size: PE-60, manufactured by Becton Dickinson and Company) with a length of 2 mm. On days 14 to 21 after the surgery, the rat was placed in a stainless-steel connected cage (750 mm (length)×210 mm (depth)×170 mm (height)) consisting of 5 cages connected in a row and having a mesh floor and was acclimated to the environment for at least 20 minutes, and then, the pain was evaluated.
The pain was evaluated using von Frey filaments (trade name: touch test sensory evaluator, Model number: model 58011, manufactured by Muromachi Kikai), and the results were calculated as a pain threshold. That is, by using a von Frey filament of different stimulation intensity, stimulation was given to the paw at the injured side of the entrapment nerve injury rat, and the stimulation intensity at which the paw was withdrawn was obtained. Then, the pain threshold (paw withdrawal threshold) (g) was calculated by the up down method of Dixon [Annual Review of Pharmacology and Toxicology, vol. 20, pp. 441-462 (1980)]. Incidentally, the pain threshold of a normal rat was from 10 to 12 g on an average.
In the evaluation of the test compound, a rat having a 50% pain threshold of less than 4 g was used, and the test compound was dissolved in a 0.5% aqueous methyl cellulose solution and orally administered at a dose of 5 mL/kg. After 1 hour, by using von Frey filaments, the pain threshold was measured.

Where a name gives a salt, the structure may show the parent alone. Bounds are passed on as bounds.

T1 sequence (O35433 whole entry): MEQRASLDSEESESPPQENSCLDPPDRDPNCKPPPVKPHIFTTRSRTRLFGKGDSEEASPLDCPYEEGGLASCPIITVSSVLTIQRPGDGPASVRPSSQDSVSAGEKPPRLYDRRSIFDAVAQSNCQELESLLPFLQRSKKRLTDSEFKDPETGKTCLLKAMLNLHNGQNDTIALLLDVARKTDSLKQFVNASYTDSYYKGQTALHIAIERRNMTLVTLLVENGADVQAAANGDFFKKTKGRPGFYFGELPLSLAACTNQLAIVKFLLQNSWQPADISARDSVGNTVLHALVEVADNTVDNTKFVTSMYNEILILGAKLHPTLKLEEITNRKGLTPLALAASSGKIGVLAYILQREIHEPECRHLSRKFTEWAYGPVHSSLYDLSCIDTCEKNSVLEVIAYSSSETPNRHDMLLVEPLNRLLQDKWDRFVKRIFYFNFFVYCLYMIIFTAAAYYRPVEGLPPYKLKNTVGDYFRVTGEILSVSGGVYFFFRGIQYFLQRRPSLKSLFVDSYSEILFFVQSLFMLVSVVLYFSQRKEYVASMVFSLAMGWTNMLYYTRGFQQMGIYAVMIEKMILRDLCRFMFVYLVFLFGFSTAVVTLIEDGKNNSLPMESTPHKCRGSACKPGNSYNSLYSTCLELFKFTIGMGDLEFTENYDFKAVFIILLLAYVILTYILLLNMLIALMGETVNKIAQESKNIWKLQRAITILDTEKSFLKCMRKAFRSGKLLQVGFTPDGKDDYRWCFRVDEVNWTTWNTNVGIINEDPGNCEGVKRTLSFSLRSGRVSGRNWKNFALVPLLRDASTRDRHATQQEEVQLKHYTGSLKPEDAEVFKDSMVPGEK

One may read the IC50 as the midpoint of a concentration-inhibition curve. Usually melting point stands for the temperature, or range, at which the solid turns liquid. Regarding `O=C(/C=C/C=C(c1ccc(C(F)(F)F)cc1)c1ccc(C(F)(F)F)cc1)Nc1cccc2ccc(O)cc12` [Compound 10, (E)-N-(7-Hydroxynaphthalen-1-yl)-5,5-bis[4-(trifluoromethyl)phenyl]-2,4-pentadienamide], the melting point fell in the range of 249 to 251 °C. For the same compound, the IC50 in data set [1] was less than 100 nM.
For the compound `O=C(/C=C/C=C(c1ccc(C(F)(F)F)cc1)c1ccc(C(F)(F)F)cc1)Nc1cccc2cnccc12` [Compound 11, (E)-N-(Isoquinolin-5-yl)-5,5-bis[4-(trifluoromethyl)phenyl]-2,4-pentadienamide], the melting point lay within 164 to 166 °C. The IC50 in data set [1] is less than 100 nM.
As to `O=C(/C=C/C=C(c1ccc(C(F)(F)F)cc1)c1ccc(C(F)(F)F)cc1)Nc1cncc(CO)c1` [Compound 25, (E)-N-[(5-Hydroxymethyl)pyridin-3-yl]-5,5-bis[4-(trifluoromethyl)phenyl]-2,4-pentadienamide], the melting point fell in the range of 255 to 257 °C. For the same compound, the IC50 in data set [1] is less than 100 nM.
Compound `O=C(/C=C/C=C(\c1ccccc1)c1ccc(C(F)(F)F)cc1)Nc1cccc2cnccc12` [Compound 59, (2E,4E)-N-(Isoquinolin-5-yl)-5-phenyl-5-[4-(trifluoromethyl)phenyl]-2,4-pentadienamide] gave a melting point of 114 to 115 °C. Also, in data set [1], the IC50 is less than 100 nM.
Consider `O=C(/C=C/C=C(/c1ccc(C(F)(F)F)cc1)c1ccco1)Nc1cccc2cnccc12` [Compound 63, (2E,4Z)-5-(Furan-2-yl)-N-(isoquinolin-5-yl)-5-[4-(trifluoromethyl)phenyl]-2,4-pentadienamide], for which, in data set [2], the “pain threshold (paw withdrawal threshold)” value (“pain threshold” for short) is reported as “significantly increases the pain threshold”.
In turn, `N#Cc1cccc(/C(=C\C=C\C(=O)Nc2cccc3cnccc23)c2ccc(C(F)(F)F)cc2)c1` [Compound 68, (2E,4Z)-5-(3-Cyanophenyl)-N-(isoquinolin-5-yl)-5-[4-(trifluoromethyl)phenyl]-2,4-pentadienamide] came in with a melting point of 118 to 119 °C. Further, in data set [1], the IC50 is less than 100 nM.
Turning to `CCOc1ccc(/C(=C\C=C\C(=O)Nc2ccccc2C(O)CO)c2ccc(C(F)(F)F)cc2)cc1` (stereo not drawn) [Compound 163, (2E,4Z)-N-[2-(1,2-Dihydroxyethyl)phenyl]-5-(4-ethoxyphenyl)-5-[4-(trifluoromethyl)phenyl]-2,4-pentadienamide], the IC50 in data set [1] is less than 100 nM.
Consider `CC(C)Oc1ccc(/C(=C\C=C\C(=O)Nc2cccc3[nH]ncc23)c2ccc(C(F)(F)F)cc2)cc1` [Compound 178, (2E,4Z)-N-(1H-Indazol-4-yl)-5-(4-isopropoxyphenyl)-5-[4-(trifluoromethyl)phenyl]-2,4-pentadienamide], for which the IC50 in data set [1] was less than 100 nM. In data set [2], the “pain threshold” value is recorded as “significantly increases the pain threshold”.
On the same counts, the results for `Cc1cccc(/C(=C\C=C\C(=O)Nc2cccc3c2CC(O)C(=O)N3)c2ccc(C(F)(F)F)cc2)c1` (stereo not drawn) [Compound 188, (2E,4Z)-N-(3-Hydroxy-2-oxo-1,2,3,4-tetrahydroquinolin-5-yl)-5-(3-methylphenyl)-5-[4-(trifluoromethyl)phenyl]-2,4-pentadienamide] are less than 100 nM and “significantly increases the pain threshold”.
As to `CC(C)(C)Oc1ccc(/C(=C\C=C\C(=O)Nc2cccc3c2CC(O)C(=O)N3)c2ccc(C(F)(F)F)cc2)cc1` (stereo not drawn) [Compound 191, (2E,4Z)-5-(4-tert-Butoxyphenyl)-N-(3-hydroxy-2-oxo-1,2,3,4-tetrahydroquinolin-5-yl)-5-[4-(trifluoromethyl)phenyl]-2,4-pentadienamide], the IC50 in data set [1] was less than 100 nM. Moreover, in data set [2], the “pain threshold” value was “significantly increases the pain threshold”.
On to `CC(C)Oc1ccc(/C(=C\C=C\C(=O)Nc2cccc3c2CC(O)C(=O)N3)c2ccc(C(F)(F)F)cc2)cc1` (stereo not drawn) [Compound 229, (2E,4Z)-N-(3-Hydroxy-2-oxo-1,2,3,4-tetrahydroquinolin-5-yl)-5-(4-isopropoxyphenyl)-5-[4-(trifluoromethyl)phenyl]-2,4-pentadienamide], for which the IC50 in data set [1] is less than 100 nM. Moreover, the “pain threshold” value in data set [2] is listed as “significantly increases the pain threshold”.
On to `CCOc1ccc(/C(=C\C=C\C(=O)Nc2cccc3c2CC(O)CN3)c2ccc(C(F)(F)F)cc2)cc1` (stereo not drawn) [Compound 240, (2E,4Z)-5-(4-Ethoxyphenyl)-N-(3-hydroxy-1,2,3,4-tetrahydroquinolin-5-yl)-5-[4-(trifluoromethyl)phenyl]-2,4-pentadienamide monohydrochloride], for which, in data set [1], the IC50 is less than 100 nM. Also, in data set [2], the “pain threshold” value is “significantly increases the pain threshold”.
With `CCOc1ccc(/C(=C\C=C\C(=O)Nc2cccc3c2CC(O)C(=O)N3)c2ccc(C(F)(F)F)cc2)cc1` (stereo not drawn) [Compound 257, (2E,4Z)-N-(3-Hydroxy-2-oxo-1,2,3,4-tetrahydroquinolin-5-yl)-5-(4-ethoxyphenyl)-5-[4-(trifluoromethyl)phenyl]-2,4-pentadienamide], the IC50 in data set [1] was less than 100 nM. Also, the “pain threshold” value in data set [2] is “significantly increases the pain threshold”.
`CN(C)c1ccc(/C(=C\C=C\C(=O)Nc2cccc3c2CC(O)CN3)c2ccc(C(F)(F)F)cc2)cc1.Cl.Cl` (stereo not drawn) [Compound 270, (2E,4Z)-5-[4-(N,N-Dimethylamino)phenyl]-N-(3-hydroxy-1,2,3,4-tetrahydroquinolin-5-yl)-5-[4-(trifluoromethyl)phenyl]-2,4-pentadienamide Dihydrochloride]: the IC50 in data set [1] was less than 100 nM. In addition, the “pain threshold” value in data set [2] is listed as “significantly increases the pain threshold”.
As to `CCOc1ccc(/C(=C\C=C\C(=O)Nc2cccc3c2CC(O)C(=O)N3)c2ccc(Cl)cc2)cc1` (stereo not drawn) [Compound 310, (2E,4E)-5-(4-Chlorophenyl)-5-(4-ethoxyphenyl)-N-(3-hydroxy-2-oxo-1,2,3,4-tetrahydroquinolin-5-yl)-2,4-pentadienamide], in data set [1], the IC50 is less than 100 nM. For the same compound, in data set [2], the “pain threshold” value is recorded as “significantly increases the pain threshold”.
On the same counts, the results for `O=C(/C=C/C=C(\c1ccc(OC2COC2)cc1)c1ccc(C(F)(F)F)cc1)Nc1cccc2c1CC(O)C(=O)N2` (stereo not drawn) [Compound 314, (2E,4Z)-N-(3-Hydroxy-2-oxo-1,2,3,4-tetrahydroquinolin-5-yl)-5-[4-(oxetan-3-yloxy)phenyl]-5-[4-(trifluoromethyl)phenyl]-2,4-pentadienamide] are less than 100 nM and “significantly increases the pain threshold”.

Values taken from patent publication US20090203667A1, “PENTADIENAMIDE DERIVATIVES” (Kyowa Hakko Kirin Co., Ltd., priority 2006, published 2009).
